Source: patent US8653087B2, “Pyrido [5, 4-D] pyrimidines as cell proliferation inhibitors” (Boehringer Ingelheim International GmbH, priority 2008, dated 2014)

target: B-Raf (V600E)-kinase (Homo sapiens (Human), UniProt P15056, V600E); experiment: Kinase test B-RAF (V600E); assay type: biochemical; conditions: B-RAF (V600E) kinase test, 250 μM ATP
Method in brief: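 Read-out is DELFIA europium TRF of phospho-MEK (Ser217/221) on biotinylated MEK1 bound to streptavidin plates, IC50 from dose-response. Reaction ran 60 min at RT with 250 μM ATP, after a 24 h RT preincubation of compound with B-Raf (V600E) kinase, 5% DMSO final.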

Sequence of B-Raf (V600E)-kinase (P15056 whole entry V600E): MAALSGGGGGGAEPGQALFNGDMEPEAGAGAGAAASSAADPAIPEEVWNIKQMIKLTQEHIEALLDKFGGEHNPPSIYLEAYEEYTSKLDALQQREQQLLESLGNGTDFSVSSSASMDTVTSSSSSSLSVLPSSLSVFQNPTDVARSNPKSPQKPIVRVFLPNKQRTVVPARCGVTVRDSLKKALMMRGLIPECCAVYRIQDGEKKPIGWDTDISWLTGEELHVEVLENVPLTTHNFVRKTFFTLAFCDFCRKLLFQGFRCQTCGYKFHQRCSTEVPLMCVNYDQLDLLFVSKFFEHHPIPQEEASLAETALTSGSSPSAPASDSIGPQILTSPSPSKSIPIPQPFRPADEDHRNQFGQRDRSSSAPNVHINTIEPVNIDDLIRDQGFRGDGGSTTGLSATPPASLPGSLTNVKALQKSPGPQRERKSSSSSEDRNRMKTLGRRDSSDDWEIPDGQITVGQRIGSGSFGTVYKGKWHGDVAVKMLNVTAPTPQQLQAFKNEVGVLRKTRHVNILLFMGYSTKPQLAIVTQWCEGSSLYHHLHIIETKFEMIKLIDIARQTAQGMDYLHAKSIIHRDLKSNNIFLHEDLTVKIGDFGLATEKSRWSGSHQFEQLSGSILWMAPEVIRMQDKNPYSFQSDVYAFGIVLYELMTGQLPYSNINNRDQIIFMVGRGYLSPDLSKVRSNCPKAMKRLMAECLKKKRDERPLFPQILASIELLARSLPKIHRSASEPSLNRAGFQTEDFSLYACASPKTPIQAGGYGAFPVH

IC50	SMILES
33 nM	Cc1ccc(C(=O)Nc2cc(C(C)(C)C)on2)cc1N(C)c1ncnc2cnc(NC3CCOC3)nc12 (centres unmarked) [III-581]
2 nM	Cc1ccc(NC(=O)c2cccc(C(C)(C)C#N)c2)cc1Nc1ncnc2cnc(N3CC[C@H](F)C3)nc12 [IV-35]
1 nM	Cc1ccc(C(=O)Nc2cc(C(C)(C)C)on2)cc1Nc1ncnc2cnc(N3CCN(CC4CCN(C)CC4)CC3)nc12 [III-420]
3 nM	Cc1ccc(C(=O)Nc2cc(C(C)(C)C)nn2C)cc1Nc1ncnc2cnc(NCC(C)C)nc12 [III-499]
4 nM	Cc1ccc(C(=O)Nc2cc(N3CCN(CCO)CC3)cc(C(F)(F)F)c2)cc1Nc1ncnc2cnc(N3CCOCC3)nc12 [III-526]
< 1 nM	Cc1ccc(C(=O)Nc2cc(C(C)(C)C)on2)cc1Nc1ncnc2cnc(NCCCN(C)C)nc12 [III-598]
2 nM	CCN1CCN(c2cc(NC(=O)c3ccc(C)c(Nc4ncnc5cnc(N6CCOCC6)nc45)c3)cc(C(F)(F)F)c2)CC1 [III-441]
3 nM	CN(C)C1CCN(c2ncc3ncnc(Nc4cc(C(=O)Nc5cc(C(C)(C)C)on5)ccc4F)c3n2)CC1 [III-401]
2 nM	Cc1ccc(C(=O)Nc2cc(N3CCCN(C)CC3)cc(C(F)(F)F)c2)cc1Nc1ncnc2cnc(N3CCOCC3)nc12 [III-463]
2 nM	COCCN1CCN(c2ncc3ncnc(Nc4cc(C(=O)Nc5ccc(OC)c(C(F)(F)F)c5)ccc4F)c3n2)CC1 [III-402]
3 nM	Cc1ccc(C(=O)Nc2cc(C(C)(C)C)n[nH]2)cc1Nc1ncnc2cnc(N3CCC(CN4CCCC4)CC3)nc12 [III-600]
4 nM	Cc1ccc(C(=O)Nc2cc(C(C)(C)C)on2)cc1Nc1ncnc2cnc(N(C)CC3CCCCO3)nc12 (centres unmarked) [III-480]
1 nM	Cc1ccc(C(=O)Nc2cccc(C(C)(C)C)c2)cc1Nc1ncnc2cnc(N3CCN(CC4CCN(C)CC4)CC3)nc12 [III-416]
3 nM	COc1ncc2ncnc(Nc3cc(NC(=O)c4cc(N5CCN(C)CC5)cc(C(F)(F)F)c4)ccc3C)c2n1 [IV-46]
10 nM	Cc1ccc(C(=O)Nc2cc(N(C)CCN(C)C)cc(C(F)(F)F)c2)cc1Nc1ncnc2cnc(N(C)CC3CCCCO3)nc12 (centres unmarked) [III-407]
2 nM	COc1c(CN2CCCC2)cc(C(F)(F)F)cc1NC(=O)c1ccc(C)c(Nc2ncnc3cnc(N4CCOCC4)nc23)c1 [III-539]
3 nM	Cc1ccc(C(=O)Nc2ccnc(C(C)(C)C)c2)cc1Nc1ncnc2cnc(N3CCC(CCN(C)C)CC3)nc12 [III-606]
4 nM	CN1CCC(N(C)c2ncc3ncnc(Nc4cc(C(=O)Nc5cc(C(C)(C)C)on5)ccc4F)c3n2)C1 (centres unmarked) [III-400]
5 nM	Cc1ccc(C(=O)Nc2cc(N3CCN(C)CC3)c(F)c(C(F)(F)F)c2)cc1Nc1ncnc2cnc(N3CCN(CC4CCN(C)CC4)CC3)nc12 [III-509]
1 nM	CNc1ncnc2c(Nc3cc(C(=O)Nc4cc(C(C)(C)C)on4)ccc3C)ncnc12 [VII-1]
2 nM	COCCN(C)c1ncc2ncnc(Nc3cc(C(=O)Nc4cc(C(F)(F)F)ccn4)ccc3C)c2n1 [III-472]
1 nM	Cc1ccc(C(=O)Nc2cc(N3CCN(C)CC3)cc(C(F)(F)F)c2)cc1Nc1ncnc2cnc(N3CCOCC3)nc12 [III-462]

The remaining lines, values behind:

SMILES	IC50
Cc1ccc(C(=O)Nc2cccc(C(C)(C)C#N)c2)cc1Nc1ncnc2cnc(N3CC[C@@H](F)C3)nc12 [III-206]	2 nM
Cc1ccc(C(=O)Nc2cc(C(C)(C)C)n[nH]2)cc1Nc1ncnc2c(N)nc(N3CCN(CC4CCCO4)CC3)nc12 (centres unmarked) [I-38]	6 nM
Cc1ccc(C(=O)Nc2cccc(C(C)(C)C)c2)cc1Nc1ncnc2cnc(N3CCNCC3)nc12 [III-341]	< 1 nM
Cc1ccc(C(=O)NCc2ccc(C(F)(F)F)cc2)cc1Nc1ncnc2cnc(N3CCOCC3)nc12 [III-307]	114 nM
COCCN(C)c1ncc2ncnc(Nc3cc(C(=O)Nc4ccc(OC)c(C(F)(F)F)c4)ccc3C(F)(F)F)c2n1 [III-42]	64 nM
COCCN1CCN(c2ncc3ncnc(Nc4cc(C(=O)Nc5ccc(C#N)c(C(F)(F)F)c5)ccc4C)c3n2)CC1 [III-532]	2 nM
Cc1ccc(C(=O)Nc2cccc(C(F)(F)F)c2)cc1Nc1ncnc2cnc(N3CCN(C)CC3)nc12 [III-298]	1 nM
COCCN(C)c1ncc2ncnc(Nc3cc(C(=O)Nc4cc(OCCN(C)C)cc(C(F)(F)F)c4)ccc3C)c2n1 [III-141]	2 nM
COc1ccc(NC(=O)c2ccc(C(F)(F)F)c(Nc3ncnc4cnc(NCCN(C)C)nc34)c2)cc1C(F)(F)F [III-52]	2230 nM
Cc1ccc(NC(=O)c2cccc(C(F)(F)F)c2)cc1Nc1ncnc2c(N)nc(N3CCNCC3)nc12 [II-19]	9 nM
CNc1ncc2ncnc(Nc3cc(C(=O)Nc4cc(CN5CCCC5)cc(C(F)(F)F)c4)ccc3C)c2n1 [III-116]	< 1 nM
Cc1ccc(C(=O)Nc2cccc(C(C)(C)C)c2)cc1Nc1ncnc2cnc(N3CC[C@@H](F)C3)nc12 [III-244]	< 1 nM
CN(C)CCN(C)c1ncc2ncnc(Nc3cc(C(=O)Nc4cc(C(C)(C)C)on4)ccc3C(F)(F)F)c2n1 [III-56]	1990 nM
Cc1ccc(C(=O)NC2CCCCC2)cc1Nc1ncnc2cnc(N3CCCCC3)nc12 [III-215]	> 10000 nM
Cc1ccc(C(=O)Nc2cccc(C(C)(C)C)c2)cc1Nc1ncnc2cnc(N3CCCCC3)nc12 [III-248]	2 nM
Cc1ccc(C(=O)NCc2ccc(C(C)(C)C)cc2)cc1Nc1ncnc2cnc(N(C)CCN(C)C)nc12 [III-233]	571 nM
CN1CCC(N2CCN(c3nc(N)c4ncnc(Nc5cc(C(=O)Nc6cccc(C(F)(F)F)c6)ccc5Br)c4n3)CC2)CC1 [I-28]	13 nM
Cc1cn(-c2cc(NC(=O)c3ccc(C)c(Nc4ncnc5c(N)nc(N6CCN(C)CC6)nc45)c3)cc(C(F)(F)F)c2)cn1 [I-75]	54 nM
COc1ccc(C(F)(F)F)cc1NC(=O)c1ccc(C)c(Nc2ncnc3cnc(NC4CCOC4)nc23)c1 (centres unmarked) [III-347]	1 nM
CCN(CC)c1ncc2ncnc(Nc3cc(C(=O)Nc4cc(CN5CCCC5)cc(C(F)(F)F)c4)ccc3C)c2n1 [III-117]	2 nM
Cc1ccc(C(=O)Nc2nnc(C(F)(F)F)s2)cc1Nc1ncnc2cnc(N3CC[C@H](F)C3)nc12 [III-285]	274 nM
Cc1ccc(C(=O)Nc2cc(CN3CCCC3)cc(C(F)(F)F)c2)cc1Nc1ncnc2cnc(NC3CC3)nc12 [III-111]	< 1 nM
Cc1ccc(C(=O)Nc2cc(OCCN(C)C)cc(C(F)(F)F)c2)cc1Nc1ncnc2cnc(N3CCC3)nc12 [III-143]	2 nM
Cc1ccc(C(=O)Nc2cc(CN3CCCC3)cc(C(F)(F)F)c2)cc1Nc1ncnc2cnc(N3CCC(F)(F)CC3)nc12 [III-102]	4 nM
COCCN(C)c1ncc2ncnc(Nc3cc(C(=O)Nc4ccc(OC)c(C(F)(F)F)c4)ccc3F)c2n1 [III-30]	2 nM

SMILES	IC50
CC(C)(C)c1cc(NC(=O)c2ccc(F)c(Nc3ncnc4cnc(NC5CCOC5)nc34)c2)[nH]n1 (centres unmarked) [III-392]	3 nM
Cc1ccc(C(=O)NCc2cccc(C(F)(F)F)c2)cc1Nc1ncnc2cnc(N3CCCCC3)nc12 [III-214]	56 nM
Cc1ccc(C(=O)NC2CC2)cc1Nc1ncnc2cnc(N3CCN(C)CC3)nc12 [III-191]	> 15000 nM
Cc1ccc(C(=O)Nc2cccc(C(F)(F)F)c2)cc1Nc1ncnc2c(N)nc(N3CCN(C4CCCC4)CC3)nc12 [I-57]	< 1 nM
CC(C)CN1CCN(c2nc(N)c3ncnc(Nc4ccc(F)c(C(=O)Nc5cc(C(C)(C)C)n[nH]5)c4)c3n2)CC1 [I-83]	2200 nM
Cc1ccc(C(=O)Nc2cccc(C(F)(F)F)c2)cc1Nc1ncnc2cnc(NC3CCOC3)nc12 (centres unmarked) [III-349]	< 1 nM
Cc1ccc(C(=O)Nc2ccc3c(c2)C(C)(C)C(=O)N3CCN2CCCC2)cc1Nc1ncnc2cnc(N(C)CCN(C)C)nc12 [III-196]	16 nM
Cc1ccc(C(=O)Nc2ccc(N(C)CCN(C)C)c(C(F)(F)F)c2)cc1Nc1ncnc2cnc(NCc3cccnc3)nc12 [III-129]	2 nM
CN1CCCN(c2nc(N)c3ncnc(Nc4cc(C(=O)Nc5cccc(C(F)(F)F)c5)ccc4Cl)c3n2)CC1 [I-24]	9 nM
Cc1ccc(C(=O)Nc2cc(C(C)(C)C)n[nH]2)cc1Nc1ncnc2c(N)nc(N3CCC(N4CCN(C)CC4)CC3)nc12 [I-52]	55 nM
COc1ccc(C(=O)Nc2ccc(OC)c(C(F)(F)F)c2)cc1Nc1ncnc2cnc(N(C)CCN(C)C)nc12 [III-18]	4 nM
COc1ccc(NC(=O)c2ccc(C(F)(F)F)c(Nc3ncnc4cnc(N5CCCCCC5)nc34)c2)cc1C(F)(F)F [III-44]	> 2000 nM
Cc1ccc(C(=O)NCc2cccc(C(F)(F)F)c2)cc1Nc1ncnc2cnc(N3CCN(C)CC3)nc12 [III-188]	104 nM
CN(CCN1CCCC1)c1ncc2ncnc(Nc3cc(C(=O)Nc4cc(C(C)(C)C)on4)ccc3C(F)(F)F)c2n1 [III-59]	835 nM
Cc1ccc(C(=O)NC2CCCCC2)cc1Nc1ncnc2cnc(N3CC[C@@H](F)C3)nc12 [III-208]	> 2000 nM
COCCN1CCN(c2nc(N)c3ncnc(Nc4cc(C(=O)Nc5cc(C(C)(C)C)n[nH]5)ccc4C)c3n2)CC1 [I-41]	5 nM
Cc1ccc(C(=O)Nc2cccc(OC(F)(F)F)c2)cc1Nc1ncnc2cnc(N3CCCN(C)CC3)nc12 [III-222]	< 1 nM
Cc1ccc(C(=O)Nc2cc(N(C)CCN(C)C)cc(C(F)(F)F)c2)cc1Nc1ncnc2c(N)nc(N3CCOCC3)nc12 [I-76]	1 nM
CC(C)(C)c1cc(NC(=O)c2ccc(C(F)(F)F)c(Nc3ncnc4cnc(N5CCCCCC5)nc34)c2)no1 [III-57]	1830 nM
Cc1ccc(C(=O)Nc2cccc(C(F)(F)F)c2)cc1Nc1ncnc2cnc(N3CC[C@H](F)C3)nc12 [III-287]	1 nM
CC(C)(C)c1cc(NC(=O)c2ccc(F)c(Nc3ncnc4cnc(N5CCOCC5)nc34)c2)[nH]n1 [III-391]	1 nM
Cc1ccc(C(=O)Nc2cc(C(C)(C)C)on2)cc1Nc1ncnc2cnc(NC3CCOC3)nc12 (centres unmarked) [III-357]	< 1 nM
Cc1ccc(C(=O)NCc2ccc(C(C)(C)C)cc2)cc1Nc1ncnc2cnc(N3CC[C@@H](F)C3)nc12 [III-241]	48 nM
Cc1ccc(C(=O)Nc2ccc(Cl)c(C(F)(F)F)c2)cc1Nc1ncnc2c(N)nc(N3CCN(C)CC3)nc12 [I-74]	3 nM
